Source: patent publication US9029389B2 (Institut Pasteur Korea, priority 2011, dated 2015)

What was measured:
M. tuberculosis H37Rv = test: Acute TB mouse model of infection, bacterial load in lungs; type: in vivo, Mycobacterium tuberculosis; settings: 25 mg/kg oral gavage 5 times/week, 4 weeks of treatment
Human 5-lipoxygenase = target: T1, Human 5-lipoxygenase (Homo sapiens, UniProt P09917); test: Activity of compounds against 5-LO enzyme (LTB4 measurement and/or fluorescence method); type: biochemical; settings: for inhibition at 10 µM: 5-LO, single concentration of 10 uM in duplicate; for IC50: 6 or 11 point dose response in duplicate
T1 construct: purchased Cayman 60402; host or cells: insect cells
T1 sequence (P09917 1-674): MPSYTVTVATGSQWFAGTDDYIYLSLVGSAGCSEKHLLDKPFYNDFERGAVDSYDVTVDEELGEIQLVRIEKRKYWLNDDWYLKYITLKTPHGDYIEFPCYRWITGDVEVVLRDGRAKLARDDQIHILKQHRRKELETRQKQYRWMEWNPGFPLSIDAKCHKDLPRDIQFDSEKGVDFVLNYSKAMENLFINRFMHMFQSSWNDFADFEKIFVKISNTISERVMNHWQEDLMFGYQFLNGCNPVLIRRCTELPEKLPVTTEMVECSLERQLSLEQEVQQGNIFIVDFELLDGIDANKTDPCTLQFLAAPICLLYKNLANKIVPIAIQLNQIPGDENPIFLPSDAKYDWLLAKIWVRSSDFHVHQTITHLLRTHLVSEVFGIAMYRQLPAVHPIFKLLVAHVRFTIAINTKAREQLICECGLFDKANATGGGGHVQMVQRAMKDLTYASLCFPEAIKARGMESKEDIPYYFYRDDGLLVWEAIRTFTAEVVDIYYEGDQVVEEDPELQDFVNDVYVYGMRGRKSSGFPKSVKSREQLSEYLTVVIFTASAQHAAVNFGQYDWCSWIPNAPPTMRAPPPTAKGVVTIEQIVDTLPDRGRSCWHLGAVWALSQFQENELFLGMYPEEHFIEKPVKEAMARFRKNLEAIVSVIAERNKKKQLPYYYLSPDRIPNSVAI
Method in brief: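 Insect-cell human 5-LO preincubated 15 min at RT with compound (pH 7.4, 2 mM CaCl2, 0.1 mM ATP, 1% DMSO), then 3 uM arachidonic acid for 5 min at 37 °C; LTB4 quantified by EIA and/or LC/MS/MS. Alternatively, fluorescence of 5-HpETE via H2DCFDA, 100 uM ATP, 3 uM arachidonic acid, 5 min, RT; single 10 uM screen then 6- or 11-point IC50.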

[1] = test system: production of LTB4 in human PBMC (peripheral blood mononuclear cells); test: Production of LTB4 in PBMC (LTB4 secretion assay); type: cell-based; settings: 12 point dose response in duplicate
Experimental: Frozen human PBMC (peripheral blood mononuclear cells, AllCells, Cat#[…]) was diluted 50 times with fresh culture media (RPMI 1640 supplemented with 10% FBS, 2 mM L-alanyl-L-glutamine). Cells were harvested by centrifugation and resuspended in fresh culture media to a concentration of 5×10^6 cells per milliliter. 140 ul of cell suspension was then liquated to each well (96-well plate). After incubation at 37° C. for 1 hr under 5% CO2, 10 ul of serially diluted compounds (in 100% DMSO) and 10 ul of arachidonic acid to a final concentration of 30 uM were added and further incubated for 1 hr at 37° C. for 1 hr under 5% CO2. Then, inducers, such as A23187 (Ionophor), sodium arsenite, sodium chloride and/or Anti-DNP IgE, were added in a volume of 40 ul and cells were incubated at 37° C. for […]. Culture supernatant was harvested by centrifugation and LTB4 levels were quantified using LTB4 EIA kit (Cayman, Cat#520111). Six of the 378 compounds tested against the 5-LO enzyme in vitro were also selected to be tested for their activity in a human cellular assay. Compounds were tested in a 12 point dose response in duplicate.

| inhibition at 10 µM (Human 5-lipoxygenase) [%] | IC50 (Human 5-lipoxygenase) [µM] | melting point | SMILES | Log10CFU (M. tuberculosis H37Rv) [Log10CFU] | EC50 [1] [µM] |
| --- | --- | --- | --- | --- | --- |
| – | – | – | NNC(=O)c1ccncc1 [INH, Isoniazid, reference compound] | 5.0 | – |
| > 69 | < 1 | – | CCc1nc2cc([N+](=O)[O-])ccn2c1C(=O)NCc1ccc(N2CCC(Oc3ccc(OC(F)(F)F)cc3)CC2)cc1 [compound 312, 2-Ethyl-7-nitro-N-(4-(4-(4-(trifluoromethoxy)phenoxy)piperidin-1-yl)benzyl)imidazo[1,2-a]pyridine-3-carboxamide] | – | < 1 |
| < 40 | – | – | CCc1nc2cc(Cl)ccn2c1C(=O)NCc1ccc2oc(-c3ccc(OC(F)(F)F)cc3)nc2c1 [compound 187, 7-Chloro-2-ethyl-N-((2-(4-(trifluoromethoxy)phenyl)benzo[d]oxazol-5-yl)methyl)imidazo[1,2-a]pyridine-3-carboxamide] | – | 1 to 20 |
| > 69 | < 1 | 191 to 192 °C | CCc1nc2ccc(Cl)cn2c1CNc1ccc(N2CCN(c3ccc(F)cc3)CC2)cc1 [compound 311, N-((6-Chloro-2-ethylimidazo[1,2-a]pyridin-3-yl)methyl)-4-(4-(4-fluorophenyl)piperazin-1-yl)aniline] | – | 1 to 20 |
| > 69 | 1 to 20 | 148 to 149 °C | CCc1nc2ccc(Cl)cn2c1C(=O)N(C)Cc1ccc(N2CCN(c3ccc(F)cc3)CC2)cc1 [compound 314, 6-Chloro-2-ethyl-N-(4-(4-(4-fluorophenyl)piperazin-1-yl)benzyl)-N-methylimidazo[1,2-a]pyridine-3-carboxamide] | – | < 1 |
| > 69 | 1 to 20 | – | CCc1nc2ccc(Cl)cn2c1C(=O)N1CCC(OCc2ccc(OC(F)(F)F)cc2)CC1 [compound 313, (6-Chloro-2-ethylimidazo[1,2-a]pyridin-3-yl)(4-(4-(trifluoromethoxy)benzyloxy)piperidin-1-yl)methanone] | – | < 1 |
| 40 to 69 | – | 162.1 °C | CCc1nc2ccc(Cl)cn2c1C(=O)NCc1ccc(N2CCC(COC)CC2)cc1 [compound 247, 6-Chloro-2-ethyl-N-(4-(4-(methoxymethyl)piperidin-1-yl)benzyl)imidazo[1,2-a]pyridine-3-carboxamide] | – | – |
| > 69 | < 1 | 141 to 142 °C | CCc1nc2cc(Cl)ccn2c1C(=O)NCc1ccc(Oc2ccc(OC(F)(F)F)cc2)cc1 [compound 128, 7-Chloro-2-ethyl-N-(4-(4-(trifluoromethoxy)phenoxy)benzyl)imidazo[1,2-a]pyridine-3-carboxamide] | – | – |
| > 69 | 1 to 20 | 189.2 °C | CCc1nc2ccccn2c1C(=O)NCc1ccc(N2CCN(c3ccc(F)cc3)CC2)cc1 [compound 227, 2-Ethyl-N-(4-(4-(4-fluorophenyl)piperazin-1-yl)benzyl)imidazo[1,2-a]pyridine-3-carboxamide] | – | – |
| < 40 | – | > 156.6 °C (dec.) | CCc1nc2cc(Cl)ccn2c1C(=O)NCc1ccc(C2CCOCC2)cc1 [compound 364, 7-chloro-2-ethyl-N-(4-(tetrahydro-2H-pyran-4-yl)benzyl)imidazo[1,2-a]pyridine-3-carboxamide] | – | – |
| > 69 | < 1 | 146 °C | CCc1nc2ccccn2c1C(=O)NCc1ccc(N2CCC(c3ccc(OC(F)(F)F)cc3)CC2)cc1 [compound 266, 2-Ethyl-N-(4-(4-(4-(trifluoromethoxy)phenyl)piperidin-1-yl)benzyl)imidazo[1,2-a]pyridine-3-carboxamide] | – | – |
| < 40 | – | 218.1 °C | CCc1nc2ccc(Br)cn2c1C(=O)NCc1ccc(N2CCN(c3ccc(F)cc3)CC2)cc1 [compound 229, 6-Bromo-2-ethyl-N-(4-(4-(4-fluorophenyl)piperazin-1-yl)benzyl)imidazo[1,2-a]pyridine-3-carboxamide] | – | – |
| 40 to 69 | – | 182.7 °C | CCc1nc2cc(Cl)ccn2c1C(=O)NCc1ccc(N2CCC(c3ccc(F)cc3)CC2)cc1 [compound 250, 7-Chloro-2-ethyl-N-(4-(4-(4-fluorophenyl)piperidin-1-yl)benzyl)imidazo[1,2-a]pyridine-3-carboxamide] | – | – |
| > 69 | 1 to 20 | 138.7 °C | CCc1nc2ccccn2c1C(=O)NCc1ccc(OCc2ccc(OC(F)(F)F)cc2)cc1 [compound 207, 2-Ethyl-N-(4-(4-(trifluoromethoxy)benzyloxy)benzyl)imidazo[1,2-a]pyridine-3-carboxamide] | – | – |
| < 40 | – | > 220 °C | CCc1nc2ccc(Cl)cn2c1C(=O)NCc1nc2ccc(Cl)cc2n1C [compound 367, 6-chloro-N-((6-chloro-1-methyl-1H-benzo[d]imidazol-2-yl)methyl)-2-ethylimidazo[1,2-a]pyridine-3-carboxamide] | – | – |
| < 40 | – | 192.6 °C | CCc1nc2cc(Cl)ccn2c1C(=O)NCc1cccc(-c2ccc(OC(F)(F)F)cc2)c1 [compound 204, 7-Chloro-2-ethyl-N-((4′-(trifluoromethoxy)biphenyl-3-yl)methyl)imidazo[1,2-a]pyridine-3-carboxamide] | – | – |
| > 69 | 1 to 20 | 187.6 °C | CCc1nc2ccc(C)cn2c1C(=O)NCc1ccc(N2CCN(c3ccc(F)cc3)CC2)cc1 [compound 231, 2-Ethyl-N-(4-(4-(4-fluorophenyl)piperazin-1-yl)benzyl)-6-methylimidazo[1,2-a]pyridine-3-carboxamide] | – | – |
| < 40 | – | 138.1 to 138.7 °C | CCc1nc2ccc(Cl)cn2c1C(=O)NCc1ccc(N2CCN(Cc3ccc(OC(F)(F)F)cc3)CC2)cc1 [compound 156, 6-Chloro-2-ethyl-N-(4-(4-(4-(trifluoromethoxy)benzyl)piperazin-1-yl)benzyl)imidazo[1,2-a]pyridine-3-carboxamide] | – | – |
| 40 to 69 | – | 171 °C | CCc1nc2ccc(Cl)cn2c1C(=O)NCc1ccc(N2CCC(COc3ccc(F)cc3)CC2)cc1 [compound 244, 6-Chloro-2-ethyl-N-(4-(4-((4-fluorophenoxy)methyl)piperidin-1-yl)benzyl)imidazo[1,2-a]pyridine-3-carboxamide] | – | – |
| – | < 1 | 196.4 °C | Cc1nc2cccc(C)n2c1CNc1ccc(N2CCN(c3ccc(F)cc3)CC2)cc1 [compound 402, N-((2,5-dimethylimidazo[1,2-a]pyridin-3-yl)methyl)-4-(4-(4-fluorophenyl)piperazin-1-yl)aniline] | – | – |
| 40 to 69 | – | 186.3 °C | CCc1nc2c(OC(F)F)cccn2c1C(=O)NCc1ccc(N2CCN(c3ccc(F)cc3)CC2)cc1 [compound 278, 8-(Difluoromethoxy)-2-ethyl-N-(4-(4-(4-fluorophenyl)piperazin-1-yl)benzyl)imidazo[1,2-a]pyridine-3-carboxamide] | – | – |
| < 40 | – | > 220 °C | CCc1nc2ccc(Cl)cn2c1C(=O)NCc1nc2ccc(Cl)cc2s1 [compound 371, 6-chloro-N-((6-chlorobenzo[d]thiazol-2-yl)methyl)-2-ethylimidazo[1,2-a]pyridine-3-carboxamide] | – | – |
| < 40 | – | 117.9 °C | CCc1nc2cc(Cl)ccn2c1C(=O)NCc1ccc(N2CCCCC2C)cc1 (centres unmarked) [compound 252, 7-chloro-2-ethyl-N-(4-(2-methylpiperidin-1-yl)benzyl)imidazo[1,2-a]pyridine-3-carboxamide] | – | – |
